The structures appear in SMILES notation. Read-outs that look alike come from different tables or passages of the source.

In general, AUC(0-t) refers to the area under the concentration-time curve up to a stated or last time point. A low value points to low exposure. Broadly, the Cmax is the peak of the concentration-time curve. A word on the Tmax: it is the time at which the peak concentration occurs. In general, half-life refers to the time in which the quantity being followed falls by half.

This data set can be described thus: Pharmacokinetic experiment in rats. It is filed as in vivo, Sprague-Dawley rats. The note with it: rat; for AUC(0-t) / Cmax / Tmax / half-life / AUC(0-inf) / MRT inf: male, Sprague-Dawley, plasma; for AUC(0-inf): read-out: AUCINF_pred; for MRT inf: read-out: MRTINF_pred; for F: PO 10 mg/kg vs IV 3 mg/kg. The protocol: Six male Sprague-Dawley rats, 7 to 8 weeks old, weighing approximately 210 g, were divided into 2 groups with 3 rats in each group. The pharmacokinetic differences of the compounds were compared after they were administered to the rats at a single dose through vein (in vein 3 mg/kg) or mouth (orally 10 mg/kg).
The rats were fed with standard feed and water, and fasted 16 hours before the experiment. The drugs were dissolved with PEG400 and dimethyl sulfoxide. The blood samples were collected from eyelids at the time point of 0.083, 0.25, 0.5, 1, 2, 4, 6, 8, 12 and 24 hours after administration.
The rats were anesthetized for a short time after inhaling ether, and 300 μL of blood samples was collected from the eyelids and put into test tubes, which contains 30 μL of 1% heparin salt solution. The test tubes were dried overnight at 60° C. prior to use. After the blood sample collection at the last time point, the rats were sacrificed after the ether anesthesia.
Immediately after the collection of the blood samples, the test tubes were gently inverted at least 5 times to ensure the fully mixing and placed on ice. The blood samples were centrifuged at 4° C., 5000 rpm for 5 minutes to separate the plasma from the red blood cells. 100 μL of plasma was pipetted into a clean plastic centrifuge tube, with the name of the compound and time point on it. The plasma was stored at −80° C. before analysis, and LC-MS/MS was used to determine the concentration of the compounds disclosed herein in plasma. Pharmacokinetic parameters were calculated based on the plasma concentrations of each animal at different time points.

In turn, `[2H]C([2H])([2H])Oc1cc(Nc2nc(NC3CCOCC3)c(CC)nc2C(N)=O)ccc1N1CCC(N2CCN(C)CC2)CC1` [Compound T-1, 6-ethyl-3-((3-(methoxy-d3)-4-(4-(4-methylpiperazin-1-yl)piperidin-1-yl)phenyl)amino)-5-((tetrahydro-2H-pyran-4-yl)amino)pyrazine-2-carboxamide] showed an F of 27.52%. For the same molecule, under “IV 3 mg/kg”, the AUC(0-t) is 556 ng·h/mL, the Cmax worked out at 138 ng/mL, the time to peak (Tmax) amounted to 0.08 h and the half-life is 3.59 h. Moreover, for the setting “IV 3 mg/kg”, the AUC(0-inf) came out at 572 ng·h/mL, the MRT inf came to 4.2 h and the Vz_pred was 28.80 L/kg. Besides, under “PO 10 mg/kg”, the AUC(0-t) turned out to be 510 ng·h/mL, the peak level (Cmax) was 48.4 ng/mL, the Tmax was determined as 5.33 h and the half-life was 5.93 h. Besides, where the note is “PO 10 mg/kg”, the AUC(0-inf) turned out to be 578 ng·h/mL, the MRT inf was determined as 7.89 h and the Vz_pred is recorded as 162.8 L/kg.
`CCc1nc(C(N)=O)c(Nc2ccc(N3CCC(N4CCN(C)CC4)CC3)c(OC)c2)nc1NC1CCOCC1` [Gilteritinib, 6-ethyl-3-((3-methoxy-4-(4-(4-methylpiperazin-1-yl)piperidin-1-yl)phenyl)amino)-5-((tetrahydro-2H-pyran-4-yl)amino)pyrazine-2-carboxamide, reference compound] displayed an F of 21.15%. Under “IV 3 mg/kg”, the AUC(0-t) was 449 ng·h/mL, the Cmax was 196 ng/mL, the Tmax was 0.08 h and the half-life is 4.08 h. Moreover, where the note is “IV 3 mg/kg”, the AUC(0-inf) worked out at 509 ng·h/mL, the MRT inf worked out at 3.44 h and the Vz_pred is 34.89 L/kg. Further, for the setting “PO 10 mg/kg”, the AUC(0-t) worked out at 317 ng·h/mL, the Cmax is 34.6 ng/mL, the Tmax worked out at 8 h and the half-life is 5.76 h. Also, where the note is “PO 10 mg/kg”, the AUC(0-inf) was determined as 435 ng·h/mL, the MRT inf worked out at 7.46 h and the Vz_pred is recorded as 212.0 L/kg.

These data come from patent US11512074B2, “Substituted diamino heterocyclic carboxamide compound and a composition containing the compound and use thereof” (Shenzhen TargetRx, Inc., priority 2018, dated 2022).
